This data set in a line: solvent given as SMILES.

Take `COC(=O)c1ccccc1-c1c2ccc(=[NH2+])cc-2oc2cc(N)ccc12`: the fluorescence lifetime (in CC#N) came to 4.1 ns, the fluorescence lifetime (in CCO) stood at 3.99 ns, the fluorescence lifetime (in CN(C)C=O) is 3.74 ns and the fluorescence lifetime (in O) worked out at 4.2 ns.

Take `Cc1ccc(C(=O)NN2C3=C(CC4=C2CCCC4=O)C(=O)CCC3)cc1`: the fluorescence lifetime turned out to be 4.1 ns (in C1CCOC1); 5.9 ns (in CC#N); 5.1 ns (in CC(C)=O); 5.9 ns (in CCCCCO); 4.6 ns (in CO); 7.9 ns (in ClC(Cl)Cl). Further, the fluorescence lifetime (in ClCCl) was 5.3 ns.

Turning to `CCCCOC(=O)c1ccccc1-c1c2ccc(=[N+](CC)CC)cc-2oc2cc(N(CC)CC)ccc12`, the fluorescence lifetime by setting is: (in CC#N) 1.61 ns; (in CCO) 2.92 ns; (in CN(C)C=O) 1.92 ns; (in O) 1.67 ns.

With `Cn1c(-c2ccc(-c3nc(-c4ccccc4)c(-c4ccccc4)n3C)s2)nc(-c2ccccc2)c1-c1ccccc1`, where the note is “in CC#N”, the fluorescence lifetime came out at 1.24 ns.

As for `O=c1c2cccc3cccc(c32)c2nc3c4ccccc4c4ccccc4c3n12`, where the note is “in ClCCl”, the fluorescence lifetime worked out at 5.5 ns.

`Oc1ccc2ccc(C3(O)C4CC5CC(C4)CC3C5)cc2c1` (stereo not drawn) gave a fluorescence lifetime (in CC#N) of 7.78 ns.

As for `COc1ccc(-c2cc(C)nc(-c3ccc(-n4c5ccccc5c5ccccc54)cc3)n2)cc1`, the fluorescence lifetime came to 2.56 ns (in C1CCOC1), 5.31 ns (in CN(C)C=O), 1.21 ns (in Cc1ccccc1) and 2.97 ns (in ClC(Cl)Cl).

`Cc1ccc(-c2cc(/C=C/c3ccc(N(c4ccccc4)c4ccccc4)cc3)c(-c3ccc(C)cc3)cc2/C=C/c2ccc(N(c3ccccc3)c3ccccc3)cc2)cc1`: where the note is “in ClCCl”, the fluorescence lifetime turned out to be 1.34 ns.

Regarding `CCCCC(CC)COc1ccc2nc(-c3ccc(-c4cccs4)s3)sc2c1` (stereo not drawn), the fluorescence lifetime (in ClCCl) stood at 0.42 ns.

Turning to `CN(C)c1ccc(C2=Nc3sc4ccccc4[n+]3[B-](F)(F)O2)cc1`, the fluorescence lifetime (in Cc1ccccc1) was found to be 1.74 ns.

`CCCCCCN1C(=O)c2cccc3cc(/N=C\c4cn(C)c5ccccc45)cc(c23)C1=O` showed a fluorescence lifetime (in ClC(Cl)Cl) of 11.4 ns.

Turning to `Cn1c2ccc(S(=O)(=O)O)cc2c(=O)c2cc(S(=O)(=O)O)ccc21`, the fluorescence lifetime runs as follows: (in CS(C)=O) 10.6 ns; (in O) 16.7 ns.

Take `FC(F)(F)C(F)(F)C(F)(F)C1=NC2=C(Oc3ccccc3)C=C3c4cc(Oc5ccccc5)c5nc(C(F)(F)C(F)(F)C(F)(F)F)nc6c(Oc7ccccc7)cc(c4c56)=C4C=C(Oc5ccccc5)C(=N1)C2C34` (stereo not drawn): the fluorescence lifetime (in C1CCOC1) turned out to be 2.8 ns.

On to `C=Cc1ccc(OC)cc1`, for which the fluorescence lifetime reads like this: (in C1CCCCC1) 6.6 ns; (in CC#N) 6.3 ns.

For `COc1ccc(N(c2ccccc2)c2ccc(OC)cc2)cc1`, the fluorescence lifetime (in Cc1ccccc1) came to 2.27 ns.

Regarding `CCCCn1c2ccc(C#Cc3cccs3)cc2c2c1c1c3ccc(C#Cc4cccs4)cc3n(CCCC)c1c1c3ccc(C#Cc4cccs4)cc3n(CCCC)c21`, the fluorescence lifetime (in C1CCOC1) amounted to 3.8 ns.

The compound `Cc1cc(-n2c3ccccc3c3cc4c(cc32)C2c3ccccc3C4c3ccccc32)c(C)cc1-c1nc(-c2ccccc2)nc(-c2ccccc2)n1` returned a fluorescence lifetime (in O=P(c1ccccc1)(c1ccccc1)c1ccccc1Oc1ccccc1P(=O)(c1ccccc1)c1ccccc1) of 10.5 ns.

`O=c1c2cc(S(=O)(=O)Cl)ccc2[nH]c2ccc(S(=O)(=O)Cl)cc12` had a fluorescence lifetime (in CS(C)=O) of 10.8 ns.

For `C(#Cc1cccc2cc(-c3ccccc3)c3cc(-c4cc[b-]5c(c4)c(-c4ccccc4)cc4cccc(C#Cc6ccccc6)[n+]54)cc[b-]3[n+]12)c1ccccc1`, the fluorescence lifetime (in C1CCCCC1) turned out to be 2.4 ns.

`CN(C)c1ccc(N(C)C)cc1`: the fluorescence lifetime (in C1CCCCC1) amounted to 6.1 ns.

Compound `COc1ccc(-c2oc3cccc4c5c(-c6ccc(OC)c(OC)c6)c(=N)oc6cccc(c2c34)c65)cc1OC` yielded a fluorescence lifetime (in ClC(Cl)Cl) of 1.9 ns.

The compound `CCNc1cc2oc(=O)cc(C)c2cc1C` showed a fluorescence lifetime (in CC#N) of 3.5 ns.

Where the note is “in C1CCOC1”, `COc1ccc(-c2cc3c(cc2OC)-c2c(c4c(c5c2-c2cc(OC)c(-c6ccc(OC)cc6)cc2C5)C(=O)N(CCC(C)C)C4=O)C3)cc1` displayed a fluorescence lifetime of 4.42 ns.

On to `Cc1ccccc1-c1cc(-c2ccc(N3c4ccccc4C(C)(C)c4ccccc43)cc2)nc(-c2ccccc2)n1`, for which the fluorescence lifetime reads like this: (in Cc1ccccc1) 2.76 ns; (in ClCCl) 22.7 ns.

Under “in ClCCl”, `COc1ccc(C(=O)c2c(C)c3ccc4cccc5c6cccc7ccc2c(c76)c3c45)cc1` yielded a fluorescence lifetime of 5.6 ns.

`CCCCCCCCCCOc1ccc(C#Cc2ccc(C#Cc3ccc(OCCCCCCCCCC)c(OCCCCCCCCCC)c3)c3nc4c5ccccc5c5ccccc5c4nc23)cc1OCCCCCCCCCC`: the fluorescence lifetime (in C1CCOC1) worked out at 8.24 ns, the fluorescence lifetime (in Cc1ccccc1) came out at 7.1 ns and the fluorescence lifetime (in ClCCl) stood at 8.66 ns.

Regarding `Nc1cc(N)cc(-c2nc3ccccc3s2)c1`, the fluorescence lifetime came out at 4.63 ns (in C1CCCCC1); 4.09 ns (in C1COCCO1); 4.14 ns (in CC#N); 6.4 ns (in CC(C)O); 3.84 ns (in CCOC(C)=O); 3.2 ns (in CCOCC). Besides, the fluorescence lifetime was determined as 2.07 ns (in CO) and 1.32 ns (in O).

Where the note is “in ClCCl”, `CCOc1ccc(/C=C/c2nc(N3CCOCC3)c3c([n+]2[O-])CCCC3)cc1` registered a fluorescence lifetime of 8.2 ns.

On to `CCOC(=O)CCCCCn1c2ccc(N)cc2c(=O)c2cc(N)ccc21`, for which the fluorescence lifetime (in O) came to 11.5 ns.

Regarding `CC(C)c1cc(C(C)C)c(B2c3cc(N4c5ccccc5Oc5ccccc54)ccc3N(c3ccccc3)c3ccc(N4c5ccccc5Oc5ccccc54)cc32)c(C(C)C)c1`, the fluorescence lifetime (in c1cc(-c2cccc(-n3c4ccccc4c4ccccc43)c2)cc(-n2c3ccccc3c3ccccc32)c1) was determined as 54 ns.

For `CC(C)(C)c1ccc(Oc2cc3c4c(cc(Oc5ccc(C(C)(C)C)cc5)c5c6c(Oc7ccc(C(C)(C)C)cc7)cc7c8c(cc(Oc9ccc(C(C)(C)C)cc9)c(c2c45)c86)C(=O)N(Cc2ccccc2)C7=O)C(=O)N(Cc2ccccc2)C3=O)cc1`, the fluorescence lifetime (in ClC(Cl)Cl) was found to be 6.3 ns.

For the compound `Brc1cc(/C=C/c2ccc(N(c3ccccc3)c3ccccc3)cc2)c(Br)cc1/C=C/c1ccc(N(c2ccccc2)c2ccccc2)cc1`, the fluorescence lifetime (in ClCCl) is 0.89 ns.

Compound `O=C(O)c1ccc2cc3cc(C(=O)O)ccc3cc2c1` displayed a fluorescence lifetime (in C1CCOC1) of 12.3 ns and a fluorescence lifetime (in CN(C)C=O) of 12.5 ns.

The compound `C(#Cc1cccs1)C(C#Cc1cccs1)=Cc1ccc(C=C(C#Cc2cccs2)C#Cc2cccs2)cc1` yielded a fluorescence lifetime (in ClC(Cl)Cl) of 1.6 ns.

For the setting “in CCO”, `Cc1cc(C)c(-c2nnc(-c3ccc(-n4c5ccccc5c5ccccc54)cc3)o2)c(C)c1` showed a fluorescence lifetime of 2.1 ns.

Consider `CCC1=C(C)C2C(c3ccc(-c4ccc(-c5nc6c7ccccc7c7ccccc7c6n5-c5ccc(C(C)(C)C)cc5)cc4)cc3)c3c(C)c(CC)c(C)n3[B-](F)(F)[N+]2=C1C` (stereo not drawn), for which the fluorescence lifetime (in ClC(Cl)Cl) was found to be 17 ns.

With `CC(C)(C)c1ccc(-n2c(-c3ccc(N(c4ccc(-c5ccc(N(c6ccc(-c7nc8c9ccccc9c9ccccc9c8n7-c7ccc(C(C)(C)C)cc7)cc6)c6ccc(-c7nc8c9ccccc9c9ccccc9c8n7-c7ccc(C(C)(C)C)cc7)cc6)cc5)cc4)c4ccc(-c5nc6c7ccccc7c7ccccc7c6n5-c5ccc(C(C)(C)C)cc5)cc4)cc3)nc3c4ccccc4c4ccccc4c32)cc1`, the fluorescence lifetime (in ClCCl) turned out to be 3.8 ns.

Regarding `N#Cc1cccc2ccccc12`, the fluorescence lifetime was determined as 15.9 ns (in C1CCCCC1); 11 ns (in C1CCOC1); 17.7 ns (in CCCCCCC); 12.9 ns (in CCCCOC(C)=O); 12.8 ns (in CCCOC(C)=O); 11.9 ns (in CCOC(C)=O). Further, the fluorescence lifetime is 13.7 ns (in CCOCC) and 12.8 ns (in Cc1ccccc1).

As for `c1ccc(-c2ccc(-c3ccc(-c4ccccc4)cc3)cc2)cc1`, the fluorescence lifetime is, setting by setting: (in C1CCCCC1) 0.8 ns; (in C1CCOC1) 1 ns.

`N#Cc1ccc(-n2cccc2)cc1`: the fluorescence lifetime is 8.2 ns (in CC#N), 2.42 ns (in CCCCCC), 3.8 ns (in CCOCC) and 3.1 ns (in ClCCl).

In turn, `COC(=O)[C@@]12N=N[C@@H](C3C[C@H]31)[C@@H]1C[C@@H]12` (stereo partly drawn) displayed a fluorescence lifetime (in CC#N) of 9.2 ns.

Take `CCN(CC)c1ccc2c(-c3ccc(S(=O)(=O)O)cc3S(=O)(=O)[O-])c3ccc(=[N+](CC)CC)cc-3oc2c1`: the fluorescence lifetime is 2.47 ns (in CC#N), 3 ns (in CCO), 2.91 ns (in CN(C)C=O) and 1.78 ns (in O).

On to `CN1CCCc2cc3c(C(F)(F)F)cc(=O)oc3cc21`, for which the fluorescence lifetime (in C1CCCCC1) is 4.2 ns, the fluorescence lifetime (in CC#N) was determined as 5.6 ns and the fluorescence lifetime (in CCO) amounted to 5.1 ns.

Regarding `NS(=O)(=O)c1ccc(N2N=C(c3ccc(O)cc3)CC2c2ccc(F)cc2)cc1` (stereo not drawn), the fluorescence lifetime by setting is: (in C1CCOC1) 2.42 ns; (in C1COCCO1) 2.33 ns; (in CC#N) 2.24 ns; (in CC(C)O) 1.98 ns; (in CCO) 1.78 ns; (in CCOC(C)=O) 2.35 ns. The fluorescence lifetime runs as follows: (in CN(C)C=O) 2.45 ns; (in CO) 1.64 ns; (in CS(C)=O) 2.45 ns; (in O) 3.17 ns.

`Cc1cc(C2=Cc3cccc[n+]3[B-](F)(F)O2)ccc1N(C)C` yielded a fluorescence lifetime (in ClC(Cl)Cl) of 2.74 ns.

As to `COc1cc2cc(/C=C/c3ccc(/C=C/c4ccc(/C=C(\C#N)C(=O)O)cc4)cc3)c(=O)oc2cc1OC`, the fluorescence lifetime (in CC#N) is 2.3 ns.

With `CCCCOC(=O)c1cc(Cl)c2c3c(Cl)cc4c5c(cc(Cl)c(c6c(Oc7ccc(C(=O)OC)cc7)cc(C(=O)OCCCC)c1c26)c53)C(=O)N(c1c(C(C)C)cccc1C(C)C)C4=O`, the fluorescence lifetime (in Cc1ccccc1) turned out to be 6.09 ns.

Under “in ClC(Cl)Cl”, `COc1ccc2c(C=C(C#N)C#N)cc3ccc4cc(C=C(C#N)C#N)c5ccc(OC)cc5c4c3c2c1` had a fluorescence lifetime of 1.5 ns.

For the compound `CCCCCCN1C(=O)c2cccc3c(-c4cc5ccccc5s4)ccc(c23)C1=O`, where the note is “in ClC(Cl)Cl”, the fluorescence lifetime stood at 0.86 ns.

`CCN(CC)c1ccc2c(c1)C(C)(C)C(=O)C=C2` showed a fluorescence lifetime (in O) of 2.56 ns.

In the case of `CC(C)c1ccc2ccc3c(C(C)C)ccc4ccc1c2c43`, the fluorescence lifetime reads like this: (in CCCCCC) 52.9 ns; (in CO) 85.7 ns; (in ClCCl) 40.3 ns.

As to `c1ccc2c(c1)[nH]c1ncccc12`, the fluorescence lifetime runs as follows: (in CC#N) 13.3 ns; (in CCCCCC) 9.1 ns.
